The values below come from patent US11446287B2, “Compounds and methods for EP300 or CBP modulation and indications therefor” (Opna Immuno-Oncology SA, priority 2019, dated 2022).

The target in the assay is T1, Recombinant human CBP containing the bromodomain (CBP-BD (1043-1159)) (Homo sapiens, UniProt Q92793).
T1 construct: Recombinant human CBP bromodomain (CBP-BD (1043-1159)); made in house; host or cells: E. coli BL21-CodonPlus (DE3), modified pET vector
The assay is described as follows: CBP Alphascreen binding assay. Particulars: read-out: CREBBP (CBP) IC50. The gist of the method:
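Buffer: 50 mM HEPES pH 7.5, 50 mM NaCl, 0.01% BSA, 0.01% Triton X-100, 2 mM DTT. The signal was normalised to plate controls and fitted with a four-parameter curve to give IC50.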
On the technique in general: In Alpha technology, singlet oxygen from a donor bead excites a nearby acceptor bead.

T1 sequence (Q92793 1081-1197): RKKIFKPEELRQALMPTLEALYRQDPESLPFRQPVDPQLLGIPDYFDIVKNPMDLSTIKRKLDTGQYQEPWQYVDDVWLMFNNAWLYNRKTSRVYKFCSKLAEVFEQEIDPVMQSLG

`Cc1noc(C)c1-c1cnc2c(c1)c(-c1ccc(C(=O)O)cc1OCC(F)F)cn2-c1ccccc1` [P-0277, 3-(2,2-difluoroethoxy)-4-(5-(3,5-dimethylisoxazol-4-yl)-1-phenyl-1H-pyrrolo[2,3-b]pyridin-3-yl)benzoic acid]: the IC50 (usually the concentration that inhibits the measured activity by half) is 0.0001 to 1 µM.
As for `Cc1noc(C)c1-c1cnc2c(c1)c(-c1ccc(C(=O)O)cc1OCC(F)(F)F)cn2-c1ccccc1` [P-0278, 4-(5-(3,5-dimethylisoxazol-4-yl)-1-phenyl-1H-pyrrolo[2,3-b]pyridin-3-yl)-3-(2,2,2-trifluoroethoxy)benzoic acid], the IC50 was 0.0001 to 1 µM.
To `Cc1noc(C)c1-c1cnc2c(c1)c(-c1ccc(C(=O)O)cc1OC(F)(F)F)cn2-c1ccc(F)cc1` [P-0279, 4-(5-(3,5-dimethylisoxazol-4-yl)-1-(4-fluorophenyl)-1H-pyrrolo[2,3-b]pyridin-3-yl)-3-(trifluoromethoxy)benzoic acid] belongs 0.0001 to 1 µM; to `Cc1noc(C)c1-c1cnc2c(c1)c(-c1cnn(CC(=O)O)c1)cn2C(C1CC1)C1CC1` [P-0280, 2-(4-(1-(dicyclopropylmethyl)-5-(3,5-dimethylisoxazol-4-yl)-1H-pyrrolo[2,3-b]pyridin-3-yl)-1H-pyrazol-1-yl)acetic acid], 0.0001 to 1 µM; to `Cc1noc(C)c1-c1cnc2c(c1)c(-c1ccc(C(=O)O)cc1OC(F)(F)F)cn2-c1cnc(N2CCC2)nc1` [P-0281, 4-(1-(2-(azetidin-1-yl)pyrimidin-5-yl)-5-(3,5-dimethylisoxazol-4-yl)-1H-pyrrolo[2,3-b]pyridin-3-yl)-3-(trifluoromethoxy)benzoic acid], 0.0001 to 1 µM.
The result for `Cc1noc(C)c1-c1cnc2c(c1)c(-c1ccc(C(=O)O)cc1OC(F)(F)F)cn2-c1ccc(S(C)(=O)=O)cc1` [P-0282, 4-(5-(3,5-dimethylisoxazol-4-yl)-1-(4-(methylsulfonyl)phenyl)-1H-pyrrolo[2,3-b]pyridin-3-yl)-3-(trifluoromethoxy)benzoic acid] reads 0.0001 to 1 µM.
Take `Cc1noc(C)c1-c1cnc2c(c1)c(-c1c(Cl)cc(C(=O)O)cc1OC(C)C)cn2C(C1CC1)C1CC1` [P-0283, 3-chloro-4-(1-(dicyclopropylmethyl)-5-(3,5-dimethylisoxazol-4-yl)-1H-pyrrolo[2,3-b]pyridin-3-yl)-5-isopropoxybenzoic acid]: the IC50 fell in the range of 0.0001 to 1 µM.
On to `Cc1noc(C)c1-c1cnc2c(c1)c(-c1cc(C(=O)O)ccc1OC(F)(F)F)cn2C(C1CC1)C1CC1` [P-0284, 3-(1-(dicyclopropylmethyl)-5-(3,5-dimethylisoxazol-4-yl)-1H-pyrrolo[2,3-b]pyridin-3-yl)-4-(trifluoromethoxy)benzoic acid], for which the IC50 lay within 0.0001 to 1 µM.
For the compound `Cc1noc(C)c1-c1cnc2c(c1)c(-c1ccc(C(=O)O)cc1OC(F)(F)F)cn2[C@H]1CCOC1` [P-0285, (S)-4-(5-(3,5-dimethylisoxazol-4-yl)-1-(tetrahydrofuran-3-yl)-1H-pyrrolo[2,3-b]pyridin-3-yl)-3-(trifluoromethoxy)benzoic acid], the IC50 is 0.0001 to 1 µM.
To `Cc1noc(C)c1-c1cnc2c(c1)c(-c1ccc(C(=O)O)cc1OC(F)(F)F)cn2[C@@H]1CCOC1` [P-0286, (R)-4-(5-(3,5-dimethylisoxazol-4-yl)-1-(tetrahydrofuran-3-yl)-1H-pyrrolo[2,3-b]pyridin-3-yl)-3-(trifluoromethoxy)benzoic acid] belongs 0.0001 to 1 µM.
With `CCn1cc(-n2cc(-c3ccc(C(=O)O)cc3OC(F)(F)F)c3cc(-c4c(C)noc4C)cnc32)c(C)n1` [P-0287, 4-(5-(3,5-dimethylisoxazol-4-yl)-1-(1-ethyl-3-methyl-1H-pyrazol-4-yl)-1H-pyrrolo[2,3-b]pyridin-3-yl)-3-(trifluoromethoxy)benzoic acid], the IC50 lay within 0.0001 to 1 µM.
To `Cc1nn(C(F)F)cc1-n1cc(-c2ccc(C(=O)O)cc2OC(F)(F)F)c2cc(-c3c(C)noc3C)cnc21` [P-0288, 4-(1-(1-(difluoromethyl)-3-methyl-1H-pyrazol-4-yl)-5-(3,5-dimethylisoxazol-4-yl)-1H-pyrrolo[2,3-b]pyridin-3-yl)-3-(trifluoromethoxy)benzoic acid] belongs 0.0001 to 1 µM; to `Cc1noc(C)c1-c1cnc2c(c1)c(-c1ccc(C(=O)O)cc1OC(F)(F)F)cn2-c1cnn(C(F)F)c1C` [P-0289, 4-(1-(1-(difluoromethyl)-5-methyl-1H-pyrazol-4-yl)-5-(3,5-dimethylisoxazol-4-yl)-1H-pyrrolo[2,3-b]pyridin-3-yl)-3-(trifluoromethoxy)benzoic acid], 0.0001 to 1 µM; to `Cc1noc(C)c1-c1cnc2c(c1)c(-c1ccc(C(=O)O)cc1OC(F)(F)F)cn2C1CCNCC1` [P-0290, 4-(5-(3,5-dimethylisoxazol-4-yl)-1-(piperidin-4-yl)-1H-pyrrolo[2,3-b]pyridin-3-yl)-3-(trifluoromethoxy)benzoic acid], 0.0001 to 1 µM.
For `CC(=O)N1CCC(n2cc(-c3ccc(C(=O)O)cc3OC(F)(F)F)c3cc(-c4c(C)noc4C)cnc32)CC1` [P-0291, 4-(1-(1-acetylpiperidin-4-yl)-5-(3,5-dimethylisoxazol-4-yl)-1H-pyrrolo[2,3-b]pyridin-3-yl)-3-(trifluoromethoxy)benzoic acid], the IC50 was in the range of 0.0001 to 1 µM.
The result for `Cc1noc(C)c1-c1cnc2c(c1)c(-c1ccc(C(=O)O)cc1OC(F)(F)F)cn2C1CCN(S(C)(=O)=O)CC1` [P-0292, 4-(5-(3,5-dimethylisoxazol-4-yl)-1-(1-(methylsulfonyl)piperidin-4-yl)-1H-pyrrolo[2,3-b]pyridin-3-yl)-3-(trifluoromethoxy)benzoic acid] reads 0.0001 to 1 µM; that for `Cc1noc(C)c1-c1cnc2c(c1)c(-c1ccc(C(=O)O)cc1OC(F)(F)F)cn2-c1ccncc1F` [P-0293, 4-(5-(3,5-dimethylisoxazol-4-yl)-1-(3-fluoropyridin-4-yl)-1H-pyrrolo[2,3-b]pyridin-3-yl)-3-(trifluoromethoxy)benzoic acid], 0.0001 to 1 µM; that for `Cc1noc(C)c1-c1cnc2c(c1)c(-c1ccc(C(=O)O)cc1OC(F)(F)F)cn2-c1cnn(CC(C)(C)O)c1` [P-0294, 4-(5-(3,5-dimethylisoxazol-4-yl)-1-(1-(2-hydroxy-2-methylpropyl)-1H-pyrazol-4-yl)-1H-pyrrolo[2,3-b]pyridin-3-yl)-3-(trifluoromethoxy)benzoic acid], 0.0001 to 1 µM.
The result for `CCOc1cc(C(=O)O)ncc1-c1cn(-c2ccc(F)cc2F)c2ncc(-c3c(C)noc3C)cc12` [P-0295, 5-(1-(2,4-difluorophenyl)-5-(3,5-dimethylisoxazol-4-yl)-1H-pyrrolo[2,3-b]pyridin-3-yl)-4-ethoxypicolinic acid] reads 0.0001 to 1 µM; that for `CCOc1c(F)c(C(=O)O)c(F)c(OCC)c1-c1cn(-c2ccc(F)cc2F)c2ncc(-c3c(C)noc3C)cc12` [P-0296, 4-(1-(2,4-difluorophenyl)-5-(3,5-dimethylisoxazol-4-yl)-1H-pyrrolo[2,3-b]pyridin-3-yl)-3,5-diethoxy-2,6-difluorobenzoic acid], 0.0001 to 1 µM; that for `CCOc1cc(C(=O)O)c(F)c(OCC)c1-c1cn(-c2ccc(F)cc2F)c2ncc(-c3c(C)noc3C)cc12` [P-0297, 4-(1-(2,4-difluorophenyl)-5-(3,5-dimethylisoxazol-4-yl)-1H-pyrrolo[2,3-b]pyridin-3-yl)-3,5-diethoxy-2-fluorobenzoic acid], 0.0001 to 1 µM.
